# Test results: patent US20240424112A1, “TETRAHYDROISOQUINOLINE COMPOUNDS THAT ARE KEAP1 BINDERS” (C4X Discovery Limited, priority 2021, published 2024)
# Experiments:
# [1] = molecular target: T1, BRD4 long isoform (Homo sapiens, UniProt O60885); assay: BRD4 degradation assay (Western blot, MDA-MB-468 cells), long isoform; type: cell-based; conditions: MDA-MB-468, n = 2
# T1 construct: endogenous in cells; host or cells: MDA-MB-468
# Experimental: (§1) BRD4 Degradation Assay Protocol Summary
# (§2) MDA-MB-468 cells were cultured routinely in DMEM supplemented with 10% heat inactivated FBS and 1% Penicillin-Streptomycin (Thermofisher Scientific) at 37° C. 5% CO2. Cells were seeded in 6-well plates at 4*10^5 cells per well and left to adhere overnight. Example compounds were solubilised in DMSO to make 10 mM stocks followed by serial dilutions in DMSO to 200× final concentration. These were further diluted in culture media to give 20× treatment stocks before addition to cells to a 1× final concentration. Cells were then incubated at 37° C. 5% CO2 for 24 or 48 hours after which cells were lysed in RIPA buffer supplemented with cOmplete Mini Protease Inhibitor Cocktail and PhosSTOP™ (Roche). Lysates were clarified by centrifugation at 13,000 RPM for 10 minutes and the protein concentration of the resulting supernatants determined by BCA assay (ThermoFisher Scientific) as per manufacturer's instructions. Lysates were denatured and reduced in NuPAGE LDS sample buffer and sample reducing agent before 10 μg was loaded onto NuPAGE […] Tris-Acetate Mini Protein Gels (ThermoFisher Scientific). Protein was transferred to nitrocellulose membranes using a Trans-Blot Turbo Transfer System (Bio-Rad) before blocking for 1 hour in Intercept (TBS) Blocking Buffer (Li-Cor). Membranes were then incubated overnight with BRD4 (ab128874; Abcam) and α-tubulin (T6074; Sigma-Aldrich) antibodies diluted 1:2000 and 1:16,000 respectively in Tris-buffered saline 0.05% Tween 20 (TBS-T). The following day, membranes were washed with TBS-T before addition of anti-rabbit IRDye 800 CW and anti-mouse IRDye 680LT secondary antibodies (LiCor) (diluted 1:10,000 in TBS-T) for one hour. Membranes were then washed with TBS-T before imaging using a LICOR Odyssey Infrared Imaging System with Image Studio Ver 5.2 software (LiCor). Densitometry analysis was carried out in the LiCor image studio software where BRD4 signal was normalised to α-tubulin signal. Percentage degradation of BRD4 relative to the DMSO treated negative control was calculated as: =100−(signal of interest/signal of control sample*100). BRD4 degradation by dBET1 was used as positive control for each plate. Data obtained for the percentage degradation of BRD4 upon treatment with the Example compounds 1-6 and Comparative Example compounds 1-3 at 24 hour incubation are shown in Table 2 and with 48 hour incubation are shown in Table 3.
# [2] = molecular target: T2, BRD4 (Homo sapiens, UniProt O60885); assay: BRD4 degradation assay (Western blot, MDA-MB-468 cells), isoform not given; type: cell-based
# T2 construct: endogenous in cells; host or cells: MDA-MB-468
# Experimental: as §1
# MDA-MB-468 cells were cultured routinely in DMEM supplemented with 10% heat inactivated FBS and 1% Penicillin-Streptomycin (Thermofisher Scientific) at 37° C. 5% CO2. Cells were seeded in 6-well plates at 4*10^5 cells per well and left to adhere overnight. Example compounds were solubilised in DMSO to make 10 mM stocks followed by serial dilutions in DMSO to 200× final concentration. These were further diluted in culture media to give 20× treatment stocks before addition to cells to a 1× final concentration. Cells were then incubated at 37° C. 5% CO2 for 24 or 48 hours after which cells were lysed in RIPA buffer supplemented with cOmplete Mini Protease Inhibitor Cocktail and PhosSTOP™ (Roche). Lysates were clarified by centrifugation at 13,000 RPM for 10 minutes and the protein concentration of the resulting supernatants determined by BCA assay (ThermoFisher Scientific) as per manufacturer's instructions. Lysates were denatured and reduced in NuPAGE LDS sample buffer and sample reducing agent before 10 μg was loaded onto NuPAGE […] Tris-Acetate Mini Protein Gels (ThermoFisher Scientific). […] Percentage degradation of BRD4 relative to the DMSO treated negative control was calculated as: =100−(signal of interest/signal of control sample*100). […]
# [3] = system: NRF2 mediated gene NAD(P)H:quinone acceptor oxidoreductase 1 (NQO1) mRNA in BEAS-2B cells; assay: Beas2B NQO1 mRNA cell based assay; conditions: Homo sapiens, 24 h, vs vehicle (0.1% DMSO), read-out: EC50 (increase in NQO1 mRNA)
# Experimental: Beas2B NQO1 mRNA Cell Based Assay
# The up-regulation of the NRF2 mediated gene NAD(P)H:quinone acceptor oxidoreductase 1 (NQO1) was measured using the following assay method: BEAS-2B cells (ATCC CRL-9609) were plated in 96-well clear plates at 20,000 cells/well in 75 μL of cell culture media and incubated overnight (37° C., 5% CO2). On day 2, 25 μL of compound or controls were added to the cells for 24 h. On day 3, the medium was aspirated from the plate and the Cells-to-CT™ 1-Step TaqMan® Kit (Ambion A25603) was used to perform expression analysis directly from cultured cells without RNA purification according to the manufacturer's instructions.
# Briefly, cells were washed with ice cold PBS and 22.5 μL of room-temperature DNase/Lysis solution was added to the cells and incubated at room temperature for 5 minutes. To stop the reaction, 2.25 μL of stop solution was added to the cell lysate. The samples were diluted 1:5 using nuclease free water and 2.5 μL transferred into the PCR plate. Real-time PCR was performed using the C-1000 Thermal Cycler (Bio-Rad) using human beta actin as the internal control. The cDNA was amplified with a specific primer for NQO1 using the 1-step RT-PCR master mix (Ambion Cells-to-CT™ 1-Step TaqMan® Kit A25603). The primers/probes sets that were used for amplification of cDNA were obtained from TaqMan Gene Expression Assays (Applied Biosystems). The comparative CT (ΔΔCT) relative quantification method was used to calculate the relative mRNA level of the target gene NQO1 as described in the Applied Biosystems Chemistry Guide. The data are expressed as an increase in target gene mRNA compared to vehicle (0.1% DMSO) control and the EC50 values were determined by fitting the data to a four parameter logistic fit using XLfit or XE Runner within ActivityBase.
# [4] = molecular target: T3, BRD4 short isoform (Homo sapiens, UniProt O60885); assay: BRD4 degradation assay (Western blot, MDA-MB-468 cells), short isoform; type: cell-based; conditions: MDA-MB-468, n = 2
# T3 construct: endogenous in cells; host or cells: MDA-MB-468
# Experimental: as §1, §2
"% Mean Degradation of BRD4 ([1]; 24 h, 0.01 μM) [%]","% Mean Degradation of BRD4 ([1]; 24 h, 0.1 μM) [%]","% Mean Degradation of BRD4 ([1]; 24 h, 1 μM) [%]","% Mean Degradation of BRD4 ([1]; 48 h, 0.01 μM) [%]","% Mean Degradation of BRD4 ([1]; 48 h, 0.1 μM) [%]","% Mean Degradation of BRD4 ([1]; 48 h, 1 μM) [%]",degradation of BRD4 ([2]; at 0.01 μM),"% Mean Degradation of BRD4 ([4]; 24 h, 0.01 μM) [%]","% Mean Degradation of BRD4 ([4]; 24 h, 0.1 μM) [%]","% Mean Degradation of BRD4 ([4]; 24 h, 1 μM) [%]","% Mean Degradation of BRD4 ([4]; 48 h, 0.01 μM) [%]","% Mean Degradation of BRD4 ([4]; 48 h, 0.1 μM) [%]","% Mean Degradation of BRD4 ([4]; 48 h, 1 μM) [%]","% Mean Degradation of BRD4 ([1]; 24 h, 5 μM) [%]","% Mean Degradation of BRD4 ([1]; 48 h, 5 μM) [%]","% Mean Degradation of BRD4 ([4]; 24 h, 5 μM) [%]","% Mean Degradation of BRD4 ([4]; 48 h, 5 μM) [%]",Structure (SMILES),target protein (BRD4) degradation ([2]; at ≥0.1 μM),EC50 [3] [nM]
75,99,101,74,97,99,up to 75%,69,97,96,68,93,100,–,–,–,–,"Cc1sc2c(c1C)C(c1ccc(Cl)cc1)=N[C@@H](CC(=O)NCC(=O)NCCn1nnc(COc3ccc(Cl)c4c3[C@@H](CN3CC5(CC5)CC3=O)N(C(=O)[C@@H]3CCCC[C@]3(C)C(=O)O)CC4)c1C)c1nnc(C)n1-2 [Example 1, (1S,2R)-2-((S)-5-Chloro-8-((1-(2-(2-(2-((S)-4-(4-chlorophenyl)-2,3,9-trimethyl-6H-thieno[3,2-f][1,2,4]triazolo[4,3-a][1,4]diazepin-6-yl)acetamido)acetamido)ethyl)-5-methyl-1H-1,2,3-triazol-4-yl)methoxy)-1-((6-oxo-5-azaspiro[2.4]heptan-5-yl)methyl)-1,2,3,4-tetrahydroisoquinoline-2-carbonyl)-1-methylcyclohexane-1-carboxylic acid]",almost complete target protein degradation,187
–,1,65,–,34,78,–,–,−5,76,–,40,78,69,82,78,80,"Cc1sc2c(c1C)C(c1ccc(Cl)cc1)=N[C@@H](CC(=O)NCCOCCC(=O)NCCOCc1c(COc3ccc(Cl)c4c3[C@@H](CN3CC5(CC5)CC3=O)N(C(=O)[C@@H]3CCCC[C@]3(C)C(=O)O)CC4)nnn1C)c1nnc(C)n1-2 [Example 5, (1S,2R)-2-((S)-5-Chloro-8-((5-(14-((S)-4-(4-chlorophenyl)-2,3,9-trimethyl-6H-thieno[3,2-f][1,2,4]triazolo[4,3-a][1,4]diazepin-6-yl)-6,13-dioxo-2,9-dioxa-5,12-diazatetradecyl)-1-methyl-1H-1,2,3-triazol-4-yl)methoxy)-1-((6-oxo-5-azaspiro[2.4]heptan-5-yl)methyl)-1,2,3,4-tetrahydroisoquinoline-2-carbonyl)-1-methylcyclohexane-1-carboxylic acid]",–,337
–,−33,3,–,−26,−61,–,–,−6,9,–,−15,13,14,−124,26,20,"Cc1sc2c(c1C)C(c1ccc(Cl)cc1)=N[C@@H](CC(=O)NCCOCCNC(=O)[C@@]1(C)CCCC[C@H]1C(=O)N1CCc3c(Cl)ccc(OCc4nnn(C)c4C)c3[C@H]1CN1CC3(CC3)CC1=O)c1nnc(C)n1-2 [Comparative Example 2, (1S,2R)-2-((S)-5-chloro-8-((1,5-dimethyl-1H-1,2,3-triazol-4-yl)methoxy)-1-((6-oxo-5-azaspiro[2.4]heptan-5-yl)methyl)-1,2,3,4-tetrahydroisoquinoline-2-carbonyl)-N-(2-(2-(2-((S)-4-(4-chlorophenyl)-2,3,9-trimethyl-6H-thieno[3,2-f][1,2,4]triazolo[4,3-a][1,4]diazepin-6-yl)acetamido)ethoxy)ethyl)-1-methylcyclohexane-1-carboxamide, reference compound]",–,75
